Data as given in article PMC9256669, “Monomethyl auristatin antibody and peptide drug conjugates for trimodal cancer chemo-radio-immunotherapy” (Nature Communications, 2022).
Values joined by “and” are separate entries in the source; they are usually repeats but may differ in a detail not shown here. Equal entries are not always repeated. Where two headings read alike, the source gives them in different places. Non-standard residues stand in square brackets, D forms with d. Residues, ends and D or L forms follow the SMILES beside them. *: point of attachment. Dolaproine = CO[C@@H]([C@@H]1CCCN1)[C@@H](C)C(=O)O; Dil = CC[C@H](C)[C@H](NC)[C@@H](CC(=O)O)OC; X1 = C[C@@H](N*)[C@@H](O)c1ccccc1; NMeV = CN[C@H](C(=O)O)C(C)C

What was measured:
A549 = experiment: Cytotoxicity, Alamar Blue assay; format: cell-based, human; conditions: 72 h drug exposure, one value per biological replicate
Protocol: (§1) Cells were plated in 96-well plates and exposed to a drug concentration range for 72 h. Alamar Blue was added to the cells and allowed to incubate for 2–4 h at 37 °C. Plates were analyzed using a plate reader with fluorescence measured at 560 nm. Fractional survival was normalized to untreated control cell fluorescent values. Drug IC50 was calculated using Prism software (GraphPad, La Jolla, CA). Cell viability, cytotoxicity and apoptosis were also measured by ApoTox-Glo Triplex Assay (Promega).

HCT116 = experiment: Cytotoxicity, Alamar Blue assay; format: cell-based, human; conditions: 72 h drug exposure, one value per biological replicate
Protocol: as §1

MOC1 = experiment: Cytotoxicity, Alamar Blue assay; format: cell-based, murine; conditions: for sensitivity in cell culture, Alamar Blue assay: MOC1 and MOC2 cells, cell viability at 72 hr of drug exposure, CDX3379 at nM dosing
Protocol: Murine colorectal (MC38 (ENH204-FP)) cancer cell lines were obtained from Kerafast. Murine head and neck MOC1 and MOC2 were generously provided by Dr. R. Uppaluri. CAL27 PIK3CA H1047R expressing cells and 4MOSC1 cells were generated in Dr. Gutkind’s laboratory and previously characterized[42],[55]. […] MC38 cells were cultured in DMEM supplemented with 10% FBS, 1 mM sodium pyruvate (Gibco), 1% non-essential amino acids (Gibco), and 10 mM HEPES (Gibco). MOC1 and MOC2 cells were cultured in IMDM (Lonza)/F-12K nutrient mixture at a 2:1 mixture with 5% FBS, 5 ng/ml EGF (EMD Millipore), 400 ng/ml hydrocortisone (Sigma), and […] insulin (Sigma). On receipt, each cell line was expanded, cryopreserved as low passage stocks, and routinely tested for mycoplasma. Cisplatin (Enzo Biosciences), paclitaxel (Sigma), and MMAE (Concortis) were reconstituted in DMSO. […] Clinical grade cetuximab (Erbitux, Lilly Medical) was obtained from UCSD Moores Cancer Center Pharmacy.
as §1
measured by Alamar Blue assay. For Alamar Blue assay cytotoxicity, we measured cell viability at 72 hr of […]

B16 tumors [1] = experiment: Subcutaneous tumor therapy with CD8 T cell depletion; format: in vivo, C57BL/6 mice; conditions: MMAE conjugate + IR, anti-CD8 antibody 10 mg/kg vs control
Protocol: MOC1, B16, LL/2, and MC38 tumor cells were injected subcutaneously into the hindlimbs of 6-week-old female C57BL/6 albino mice in 100 µl of 1:1 Matrigel (BD) and PBS solution. Fractionated IR was delivered focally to the tumor-bearing hindlimbs (3 Gy to MC38 tumors and 5 Gy to LL/2 and B16 tumors) as indicated in figure legends using a PXI X-RAD 225 XL irradiator at maximal dose rate of 3 Gy/min with a beam-conditioning aluminum filter (Precision X-ray Irradiation). For RAG1 KO studies, 6-week-old female Rag1^tm1Mom mice were injected subcutaneously with tumor cells in their hindlimbs (Jackson Labs). For CD8 depletion studies, mice were i.p. injected with anti-CD8 (BioXCell #BE0117) at 10 mg/kg on days −6, −5 and −4 tumor cell implant and then weekly starting on day after tumor cells were injected or control antibody. […] Tumor volumes were measured and calculated using the formula as ½ * length * width^2. Mice were sacrificed when tumor volume reached >1500 mm^3, maximal tumor volume approved on our protocol for subcutaneous tumors.

B16 tumors [2] = format: in vivo, C57BL/6 mice
Protocol: At harvest, tumors were isolated, minced, and re-suspended in FBS-free DMEM media supplemented with components of MACs tumor dissociation kit. Tissues were incubated for 15 min at 37 °C and mechanically digested using the gentle MACs Octo dissociator. Tissue suspensions were washed with fresh media and passed through a 100-µm strainer. Samples were split in half for immediate staining or stimulated with the Biolegend Cell Activation Cocktail (with Brefeldin A) for 3 h. Samples were washed with PBS and immediately processed for live/dead cell discrimination using BD LIVE/DEAD™ Fixable Blue Dead Cell Stain Kit. Cells were washed and stained for surface markers for 30 min at 4 °C. Intracellular staining was performed using the eBioscience FOXP3/Transcription Factor Buffer Set from Invitrogen and stained with intracellular antibodies. […] All antibodies were validated by the supplier. All flow cytometry data acquisition was done using BD LSRFortessa and analyzed using FlowJo software. Immune cells were identified by the following characteristics: cytotoxic T cells (CD45+Thy1.2+CD8+), helper T cells (CD45+Thy1.2+CD4+), NK cells (CD45+Thy1.2−NK1.1+).
FSC-A FSC-H SCC-H Live Dead-Blue
Representative flow cytometry plots to gate immune cells quantitated in Fig. 4a, b, 4d &
Supplementary Fig. 10b, c. b) Quantification of tumor immune cell identified by flow cytometry on
Tumors harvested on day 19 and immune cells characterized by flow cytometry. c) Tumor
Mice implanted with tumor
(§2) Source data are provided in Source Data file.

MC38 tumors = tested on: MC38 tumors
Source text: (§3) LL/2 cells treated with dose range of MMAE overnight and then […] in drug free media for 7-10 days to allow for visualized colonies to form.
(§4) Statistical significances calculated using one-way ANOVA with Tukey’s multiple comparisons test. 0.9 b) Cell cycle analysis […]
(§5) of MMAE treated LL/2 cells, mean ± SD, n=2. […]
(§6) experiments. c) Clonogenic survival of LL/2 cells treated with MMAE and 2 Gy (SF2). Cell Days viability normalized to non-irradiated cells for each drug condition and plotted as mean fractional survival ± SEM, n=6. Statistical significances calculated using one-way ANOVA with Sidak’s multiple comparisons test. d) Tumor volumes (n=10) and mouse body weights (n=5) of mice from experiments in Fig. 3e. Tumor volumes plotted as mean volume of surviving mice ± SEM.
(§7) Mouse body weight were normalized to each mouse’s weight on day 0, i.e. tumor implantation.
(§8) Data plotted as mean fractional body weight ± SEM. e) Mouse body weights of mice (n=5) from experiments in Fig. 4h were normalized to each mouse’s weight on day of tumor implantation.
(§9) Data is plotted as individual normalized body weights. f) Mouse body weights of mice from experiments in Fig. 5e, f were normalized to each mouse’s weight on day of tumor implantation.
as §2

B16 tumors [3] = tested on: B16 tumors
Source text: as §3, §4, §5, §6, §7, §8, §9, §2

LL/2 tumors = conditions: for Mouse survival, status: individual mice, status at the day, Figure 3e
Source text: as §3, §4, §5, §6, §7, §8, §9, §2

[4] = 10 nmoles ACPP-MMAE x 2 doses, no IR
[5] = ACPP-MMAE alone, individual mice, status at the day, Figure 3e
[6] = 10 nmoles ACPP-MMAE x 2 doses + IR 5 Gy/day x 3

CC[C@H](C)[C@@H]([C@@H](CC(=O)N1CCC[C@H]1[C@H](OC)[C@@H](C)C(=O)N[C@H](C)[C@@H](O)c1ccccc1)OC)N(C)C(=O)[C@@H](NC(=O)[C@@H](NC)C(C)C)C(C)C [MMAE, monomethyl auristatin E] (H-[NMeV]V[Dil][Dolaproine]-X1)
IC50 (A549): 0.559 nM and 0.513 nM
IC50 (HCT116): 0.343 nM and 0.431 nM and 0.548 nM and 1.43 nM and 1.52 nM and 1.35 nM
IC50 (MOC1; MOC1, 72 h drug exposure, Alamar Blue, one value per biological replicate, read-out: IC50 values): 7.93 nM and 8.71 nM and 8.36 nM and 9.59 nM
sensitivity in cell culture, Alamar Blue assay (MOC1): sensitive

CDX3379-MMAE: anti-HER3 antibody CDX3379 with 4 MMAE per antibody via MC-VC-PABC linker, labeled with Cy5
effect of CD8 T cell depletion on tumor control (B16 tumors [1]): significantly larger
sensitivity in cell culture, Alamar Blue assay (MOC1): sensitive
tumor CD8 T cell infiltration, with IR (B16 tumors [2]; B16 tumors, flow cytometry, drug + IR): significantly increased CD8 tumor cell infiltration
Flow cytometry (Figure 4b) (B16 tumors [2]; without IR, individual tumors): 3.89 and 16.51 and 9.62

cyclo(RGD)fc-MC-HN-peg8-e9-oPLGC(Me)AG-r9-c-(MC-VC-PABC-MMAE)-CONH2 [ACPP-MMAE]
effect of CD8 T cell depletion on tumor control (B16 tumors [1]): abrogated durable tumor control
survival and tumor control, + IR (MC38 tumors; 10 nmoles ACPP-MMAE x 2 doses + IR 3 Gy/day x 3): long-term survival and tumor control
anti-tumor efficacy, monotherapy (MC38 tumors; [4]): lacked significant anti-tumor efficacy
Mouse survival, status (MC38 tumors; [5]): 1
survival and tumor control, + IR (B16 tumors [3]; [6]): long-term survival and tumor control
anti-tumor efficacy, monotherapy (B16 tumors [3]; [4]): lacked significant anti-tumor efficacy
Mouse survival, status (B16 tumors [3]; [5]): 1
survival and tumor control, + IR (LL/2 tumors; [6]): modestly prolonged mouse survival and tumor control
anti-tumor efficacy, monotherapy (LL/2 tumors; [4]): lacked significant anti-tumor efficacy
Mouse survival, status (LL/2 tumors; ACPP-MMAE + IR): 1
Mouse survival, status (LL/2 tumors; ACPP-MMAE alone): 1
Flow cytometry, CD4+ (B16 tumors [2]; mouse, in vivo): 0.17 and 0.11
Flow cytometry, CD45+ (B16 tumors [2]; mouse, in vivo): 9.46 and 7.71
Flow cytometry, CD45 negative (B16 tumors [2]; mouse, in vivo): 89.90 and 91.80
Flow cytometry, NK cells (B16 tumors [2]; mouse, in vivo): 0.17 and 0.11
